# Measured values as given in patent publication US20060159780A1, “Prevention and amelioration of acetaminophen toxicity with tea melanin” (National Chiao Tung University, priority 2005, published 2006).
# Legend:
# ICR mice = assay: Toxicity of NAPAP in mice: mortality and behaviour; format: in vivo
# Experimental: (§1) Adult male ICR mice (30±5 g) were employed for all experiments. Animals were housed under controlled condition (25±2° C.) and 12 h light/dark cycle, and allowed free access to food and water, but fasted overnight before treatment. Animals were divided into several groups including control group (not receiving any treatment), negative control (receiving TSM alone), positive control (receiving only NAPAP), and experimental groups receiving NAPAP and TSM together. Each experimental group consisted of 6 mice. NAPAP was dissolved in normal saline (pH 7.4) and administered inraperitonially (i.p.) with a dose of 400 mg/kg. TSM was dissolved in distillate water at pH 7.2 and administered i.p. with doses of 10, 20, 30, or 40 mg/kg 2 h before intoxication. All animals were sacrificed by ether anesthesia 24 h after the NAPAP exposure. Blood samples were withdrawn by cardiac puncture for determination of alanine aminotransferase (ALT) activity using commercially available kit (Sigma 505-P). Liver was isolated and perfused with normal saline to wash out the blood. It was then used for determination of GSH, oxidized glutathione (GSSG), superoxide dismutase (SOD), thiobarbituric acid reactive substances (TBARS), and reduced forms of coenzymes Q9 (CoQ9) and Q10 (CoQ10).
# The behavior of the animals in experimental group resembled the control group by movement activity. […]
# [1] = system: alanine aminotransferase (ALT) activity; assay: Alanine aminotransferase (ALT) activity in blood of NAPAP-intoxicated mice; format: in vivo; details: NAPAP 400 mg/kg i.p. alone; 24 h of exposure; mean ± SEM
# Experimental: as §1
# hepatic GSH = assay: Hepatic GSH assay; format: in vivo, mice
# Experimental: as §1, with “Blood samples were withdrawn by cardiac puncture for determination of alanine aminotransferase (ALT) activity using commercially available kit (Sigma 505-P). Liver was isolated and perfused with normal saline to wash out the blood. It was then used for determination of GSH, oxidized glutathione (GSSG), superoxide dismutase (SOD), thiobarbituric acid reactive substances (TBARS), and reduced forms of coenzymes Q9 (CoQ9) and Q10 (CoQ10).” left out
# (§2) Frozen liver tissue was homogenized in 5% trichloroacetic acid (TCA) supplemented with 5 mM EDTA under a stream of nitrogen gas, then centrifuged at 20,000 g for 10 min at 4° C. […] The total hepatic glutathione level representing the sum of GSH and GSSG was determined using dithiobis-2-nitrobenzoic acid (Griffith, O. W. Anal. Biochem. 1980, 106, 207-212). The GSSG level was determined after elimination of GSH by reaction with 2-vinylpyridine, and the actual GSH level was calculated by subtracting the GSSG level from the total glutathione.
# [2] = system: oxidized glutathione (GSSG); assay: Hepatic GSSG assay; format: in vivo, mice; details: NAPAP 400 mg/kg i.p. alone; liver, 24 h; mean ± SEM
# Experimental: as §1, with “Blood samples were withdrawn by cardiac puncture for determination of alanine aminotransferase (ALT) activity using commercially available kit (Sigma 505-P). Liver was isolated and perfused with normal saline to wash out the blood. It was then used for determination of GSH, oxidized glutathione (GSSG), superoxide dismutase (SOD), thiobarbituric acid reactive substances (TBARS), and reduced forms of coenzymes Q9 (CoQ9) and Q10 (CoQ10).” left out
# as §2
# [3] = system: superoxide dismutase (SOD); assay: Superoxide dismutase assay in mouse liver; format: in vivo, mice; details: NAPAP alone, FIG. 2
# Experimental: as §1, with “Blood samples were withdrawn by cardiac puncture for determination of alanine aminotransferase (ALT) activity using commercially available kit (Sigma 505-P). Liver was isolated and perfused with normal saline to wash out the blood. It was then used for determination of GSH, oxidized glutathione (GSSG), superoxide dismutase (SOD), thiobarbituric acid reactive substances (TBARS), and reduced forms of coenzymes Q9 (CoQ9) and Q10 (CoQ10).” left out
# Determination of superoxide dismutase activity in mouse liver was based on inhibition of nitrite formation in reaction of oxidation of hydroxylammonium with superoxide anion radical (Elstner, E. F. and Heupel, A. Anal. Biochem. 1976, 70, 616-620). […] Optical absorbance at 530 nm was measured with Ultrospec III spectrophotometer (Pharmacia, LKB). The results were expressed as units of SOD activity calculated per milligram of protein.
# CoQ9 = assay: Coenzymes Q assay in liver: CoQ9; format: in vivo, mice; details: NAPAP 400 mg/kg itself, FIG. 3
# Experimental: as §1, with “It was then used for determination of GSH, oxidized glutathione (GSSG), superoxide dismutase (SOD), thiobarbituric acid reactive substances (TBARS), and reduced forms of coenzymes Q9 (CoQ9) and Q10 (CoQ10).” left out
# (§3) Determination of reduced forms of CoQ9 and CoQ10 was carried out by the method of Ikenoya et al. (Ikenoya, S. et al., Chem Pharm Bull. 1981, 29, 158-164). […] The extract was analyzed using HPLC with Jasco 840 EC detector and Chemosorb ODS-H column (4.6×250 mm). […]
# CoQ10 = assay: Coenzymes Q assay in liver: CoQ10; format: in vivo, mice; details: NAPAP 400 mg/kg itself, FIG. 3
# Experimental: as §1, with “It was then used for determination of GSH, oxidized glutathione (GSSG), superoxide dismutase (SOD), thiobarbituric acid reactive substances (TBARS), and reduced forms of coenzymes Q9 (CoQ9) and Q10 (CoQ10).” left out
# as §3
# [4] = system: antibody-forming cells (AFC) of splenocytes; assay: Antibody-producing response (AFC plaque assay) after SRBC sensitization; format: in vivo; details: NAPAP 400 mg/kg i.p.; SRBC-sensitized ICR mice
# Experimental: Experiments were performed on 10 groups of intact ICR mice consisting of 4 animals each. The first 5 groups were injected i.p. with the following single doses of TSM: 0, 10, 20, 30, and 40 mg/kg. The second 5 groups were injected similarly to the first groups with TSM, but after 2 h animals were again injected (i.p.) with 400 mg/kg NAPAP. One day after administration of TSM or TSM+NAPAP, mice were injected into the tail vein with 1×10^8 sheep red blood cells (SRBC) prepared in 0.2 mL of saline. An additional 4 animals received only SRBC (antigen control). Four days after their sensitization with SRBC, animals were sacrificed, and their spleens were removed. Single splenocytes were prepared from each spleen in 5 mL of RPMI-1640 media. Enumeration of the antibody-forming cells (AFC) was performed using a plaque assay (Jerne, N. K. and Nordin, A. A. Science 1963, 140, 405). AFC values were calculated for 10^6 splenocytes.
smiles,measurement,setting,value
"CC(=O)Nc1ccc(O)cc1 [NAPAP, N-Acetyl-p-aminophenol]",Animal lethality,ICR mice; NAPAP 400 mg/kg administered alone,66%
same,Mortality (dead/total),"ICR mice; NAPAP 400 mg/kg i.p. alone, 24 h of exposure",2/6
same,ALT,[1],2043 U/L
same,GSH,"hepatic GSH; NAPAP 400 mg/kg i.p. alone, liver, 24 h, mean ± SEM",13 ± 1 nmol/mg prot.
same,depletion of GSH level as compared to control,"hepatic GSH; NAPAP alone, 24 h after administration",2.6 fold
same,GSSG,[2],3.2 ± 0.4 nmol/mg prot.
same,decrease of SOD activity as compared to control,[3],~4 fold
same,"content of CoQ9 diminished, compared to negative control",CoQ9,60%
same,"coenzyme Q10 content diminished, compared to negative control",CoQ10,55%
same,suppression of AFC against the antigen control level,[4],26%
